Experimental findings from patent US9884868B2, “TGF-beta inhibitors” (Rigel Pharmaceuticals, Inc., priority 2015, dated 2018) are described below.

Where a name gives a salt, the structure may show the parent alone.

The experiment deals with HIS-TGF-βR1 T204D (Homo sapiens (Human), UniProt P36897, T204D). The experiment in a line: HTRF probe displacement assay with HIS-TGF-βR1 T204D. The settings on record: read-out: TGFbr1 IC50; HTRF probe displacement, 1 nM HIS-TGF-βR1 T204D, 1 hour at room temperature. A general note: In TR-FRET formats the signal depends on donor and acceptor labels being close together.
HIS-TGF-βR1 T204D, sequence (P36897 34-503 T204D): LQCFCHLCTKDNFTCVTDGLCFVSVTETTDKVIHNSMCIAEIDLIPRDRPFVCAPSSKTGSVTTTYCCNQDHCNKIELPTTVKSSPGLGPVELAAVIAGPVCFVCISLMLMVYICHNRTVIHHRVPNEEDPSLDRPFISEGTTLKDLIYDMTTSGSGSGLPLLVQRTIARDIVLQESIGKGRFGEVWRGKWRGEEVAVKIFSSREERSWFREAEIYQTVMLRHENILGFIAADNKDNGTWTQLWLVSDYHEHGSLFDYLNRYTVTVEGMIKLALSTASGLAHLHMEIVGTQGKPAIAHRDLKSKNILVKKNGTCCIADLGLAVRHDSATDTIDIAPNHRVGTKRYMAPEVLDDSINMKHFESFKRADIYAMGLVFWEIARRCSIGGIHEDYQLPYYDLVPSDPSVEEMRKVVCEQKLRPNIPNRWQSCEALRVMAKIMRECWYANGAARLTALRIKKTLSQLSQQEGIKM

By IC50 is commonly meant the point on the concentration scale where inhibition reaches its midpoint. On to `CC(C)Cn1cnc(-c2ccc(F)cc2)c1-c1ccc2ncc(C(N)=O)n2c1` [168′, 6-(4-(4-fluorophenyl)-1-isobutyl-1H-imidazol-5-yl)imidazo[1,2-a]pyridine-3-carboxamide], for which the half-maximal inhibitory concentration (IC50) was found to be 1.1 nM. Under `NC(=O)c1cnc2ccc(-c3c(-c4ccc(F)c(Cl)c4)ncn3CCCCl)nn12` [149′, 6-(4-(3-chloro-4-fluorophenyl)-1-(3-chloropropyl)-1H-imidazol-5-yl)imidazo[1,2-b]pyridazine-3-carboxamide] stands 1.7 nM; under `NC(=O)c1cnc2ccc(-c3c(-c4ccc(F)c(Cl)c4)ncn3C3CC(F)C3)nn12` (stereo not shown) [141′, 6-(4-(3-chloro-4-fluorophenyl)-1-(3-fluorocyclobutyl)-1H-imidazol-5-yl)imidazo[1,2-b]pyridazine-3-carboxamide], 0.8 nM.

With `CC(C)CCn1cnc(-c2ccc(F)c(Cl)c2)c1-c1ccc2ncc(C#N)n2n1` [49′, 6-(4-(3-chloro-4-fluorophenyl)-1-isopentyl-1H-imidazol-5-yl)imidazo[1,2-b]pyridazine-3-carbonitrile], the half-maximal inhibitory concentration (IC50) came to 1.4 nM.

In the case of `CNCc1cnc2ccc(-c3c(-c4ccc(F)cc4)ncn3CC(F)F)nn12` [Example 196′], the IC50 was 23.8 nM. Next, `N#Cc1cnc2ccc(-c3c(-c4ccc(F)c(Cl)c4)ncn3C3COC3)cn12` [97′, 6-(4-(3-chloro-4-fluorophenyl)-1-(oxetan-3-yl)-1H-imidazol-5-yl)imidazo[1,2-a]pyridine-3-carbonitrile]: 140 nM; `N#Cc1cnc2ccc(-c3c(-c4ccc(F)c(Cl)c4)ncn3C3CCC3)nn12` [58′, 6-(4-(3-chloro-4-fluorophenyl)-1-cyclobutyl-1H-imidazol-5-yl)imidazo[1,2-b]pyridazine-3-carbonitrile]: 0.8 nM; `Nc1nc(-c2ccc(F)cc2)c(-c2ccc3nccn3c2)n1CC(F)F` [Example 296′, 1-(2,2-difluoroethyl)-4-(4-fluorophenyl)-5-(imidazo[1,2-a]pyridin-6-yl)-1H-imidazol-2-amine, 2 HCl]: 109 nM. Under `N#Cc1cnc2ccc(-c3c(-c4ccc(F)cc4)ncn3CC(F)F)cn12` [Example 224′, 6-(1-(2,2-difluoroethyl)-4-(4-fluorophenyl)-1H-imidazol-5-yl)imidazo[1,2-a]pyridine-3-carbonitrile] stands 66.7 nM; under `N#Cc1cnc2ccc(-c3c(-c4ccc(F)c(Cl)c4)ncn3CCC3CCC3)nn12` [40′, 6-(4-(3-chloro-4-fluorophenyl)-1-(2-cyclobutylethyl)-1H-imidazol-5-yl)imidazo[1,2-b]pyridazine-3-carbonitrile], 0.6 nM; under `Fc1ccc(Cl)cc1-c1ncn(CC(F)F)c1-c1ccc2nccn2c1` [222′, 6-(4-(5-chloro-2-fluorophenyl)-1-(2,2-difluoroethyl)-1H-imidazol-5-yl)imidazo[1,2-a]pyridine], 2.9 nM.

Take `N#Cc1cnc2ccc(-c3c(-c4ccc(F)cc4)ncn3[C@H]3C[C@@H](O)C3)nn12` [Example 2′]: the IC50 was 2.3 nM. Under `CC(CCO)n1cnc(-c2ccc(F)cc2)c1-c1ccc2ncc(C(N)=O)n2c1` (stereo not shown) [154′, 6-(4-(4-fluorophenyl)-1-(4-hydroxybutan-2-yl)-1H-imidazol-5-yl)imidazo[1,2-a]pyridine-3-carboxamide] stands 2.3 nM; under `C[C@@H](O)Cn1cnc(-c2ccc(F)cc2)c1-c1ccc2ncc(C(N)=O)n2c1` [155′, (R)-6-(4-(4-fluorophenyl)-1-(2-hydroxypropyl)-1H-imidazol-5-yl)imidazo[1,2-a]pyridine-3-carboxamide], 5.5 nM; under `CC(F)(F)Cn1cnc(-c2ccc(F)cc2)c1-c1ccc2ncc(C#N)n2n1` [22′, 6-(1-(2,2-difluoropropyl)-4-(4-fluorophenyl)-1H-imidazol-5-yl)imidazo[1,2-b]pyridazine-3-carbonitrile], 1.2 nM. Under `CCC(CC)n1cnc(-c2ccc(F)cc2)c1-c1ccc2ncc(C#N)n2c1` [74′, 6-(4-(4-fluorophenyl)-1-(pentan-3-yl)-1H-imidazol-5-yl)imidazo[1,2-c]pyridine-3-carbonitrile] stands 152 nM; under `NC(=O)c1cnc2ccc(-c3c(-c4ccc(F)c(Cl)c4)ncn3CCO)nn12` [138′, 6-(4-(3-chloro-4-fluorophenyl)-1-(2-hydroxyethyl)-1H-imidazol-5-yl)imidazo[1,2-b]pyridazine-3-carboxamide], 0.7 nM; under `CCOCCn1cnc(-c2ccc(F)cc2)c1-c1ccc2ncc(C(N)=O)n2c1` [178′, 6-(1-(2-ethoxyethyl)-4-(4-fluorophenyl)-1H-imidazol-5-yl)imidazo[1,2-a]pyridine-3-carboxamide], 1.9 nM. Next, `CC(F)(F)Cn1cnc(-c2ccc(F)c(Cl)c2)c1-c1ccc2ncc(C#N)n2n1` [56′, 6-(4-(3-chloro-4-fluorophenyl)-1-(2,2-difluoropropyl)-1H-imidazol-5-yl)imidazo[1,2-b]pyridazine-3-carbonitrile]: 0.8 nM; `Fc1ccc(-c2ncn(CC(F)F)c2-c2ccc3ncc(C4CC4)n3c2)cc1` [Example 285′, 3-cyclopropyl-6-(1-(2,2-difluoroethyl)-4-(4-fluorophenyl)-1H-imidazol-5-yl)imidazo[1,2-a]pyridine]: 38.8 nM.

As for `CC(F)(F)Cn1cnc(-c2ccc(F)cc2)c1-c1ccc2ncc(C(N)=O)n2n1` [137′, 6-(1-(2,2-difluoropropyl)-4-(4-fluorophenyl)-1H-imidazol-5-yl)imidazo[1,2-b]pyridazine-3-carboxamide], the IC50 turned out to be 0.6 nM.

Turning to `N#Cc1cnc2ccc(-c3c(-c4ccccc4CO)ncn3CC(F)F)nn12` [253′, 6-(1-(2,2-difluoroethyl)-4-(2-(hydroxymethyl)phenyl)-1H-imidazol-5-yl)imidazo[1,2-b]pyridazine-3-carbonitrile], the half-maximal inhibitory concentration (IC50) came out at 7 nM. Under `FCCCn1cnc(-c2ccc(F)c(Cl)c2)c1-c1ccc2nccn2c1` [183′, 6-(4-(3-chloro-4-fluorophenyl)-1-(3-fluoropropyl)-1H-imidazol-5-yl)imidazo[1,2-a]pyridine] stands 21.6 nM; under `NC(=O)c1cnc2ccc(-c3c(-c4ccc(F)cc4)ncn3C3CCCC3)cn12` [159′, 6-(1-cyclopentyl-4-(4-fluorophenyl)-1H-imidazol-5-yl)imidazo[1,2-a]pyridine-3-carboxamide], 0.8 nM.

For `CNC(=O)c1cnc2ccc(-c3c(-c4ccc(F)cc4)ncn3CC(F)F)nn12` [206′, 6-(1-(2,2-difluoroethyl)-4-(4-fluorophenyl)-1H-imidazol-5-yl)-N-methylimidazo[1,2-b]pyridazine-3-carboxamide], the concentration for half-maximal inhibition (IC50) is 0.9 nM. Under `N#Cc1cnc2ccc(-c3c(-c4ccc(F)cc4)ncn3CC3CCC3)cn12` [72′, 6-(1-(cyclobutylmethyl)-4-(4-fluorophenyl)-1H-imidazol-5-yl)imidazo[1,2-a]pyridine-3-carbonitrile] stands 67.8 nM; under `CC(O)c1cnc2ccc(-c3c(-c4ccc(F)cc4)ncn3CC(F)F)nn12` (stereo not shown) [Example 214′, 1-(6-(1-(2,2-difluoroethyl)-4-(4-fluorophenyl)-1H-imidazol-5-yl)imidazo[1,2-b]pyridazin-3-yl)ethanol], 1.1 nM.

Consider `Fc1ccc(-c2ncn(CC(F)F)c2-c2ccc3nccn3c2)c(F)c1` [221′, 6-(1-(2,2-difluoroethyl)-4-(2,4-difluorophenyl)-1H-imidazol-5-yl)imidazo[1,2-a]pyridine], for which the concentration for half-maximal inhibition (IC50) amounted to 6.8 nM. Next, `NC(=O)c1cnc2ccc(-c3c(-c4ccc(F)c(F)c4)ncn3CC(F)F)cn12` [232′, 6-(1-(2,2-difluoroethyl)-4-(3,4-difluorophenyl)-1H-imidazol-5-yl)imidazo[1,2-a]pyridine-3-carboxamide]: 1.8 nM; `CCn1cnc(-c2ccc(F)c(Cl)c2)c1-c1ccc2ncc(C(N)=O)n2n1` [117′, 6-(4-(3-chloro-4-fluorophenyl)-1-ethyl-1H-imidazol-5-yl)imidazo[1,2-b]pyridazine-3-carboxamide]: 0.6 nM. Regarding `CC1(n2cnc(-c3ccc(F)c(Cl)c3)c2-c2ccc3ncc(C#N)n3n2)COC1` [43′, 6-(4-(3-chloro-4-fluorophenyl)-1-(3-methyloxetan-3-yl)-1H-imidazol-5-yl)imidazo[1,2-b]pyridazine-3-carbonitrile], the IC50 amounted to 2.7 nM. For the molecule `NC(=O)c1cnc2ccc(-c3c(-c4ccc(F)c(Cl)c4)ncn3CCCO)nn12` [142′, 6-(4-(3-chloro-4-fluorophenyl)-1-(3-hydroxypropyl)-1H-imidazol-5-yl)imidazo[1,2-b]pyridazine-3-carboxamide], the IC50 was found to be 1.6 nM. With `CC(C)(F)Cn1cnc(-c2ccc(F)cc2)c1-c1ccc2ncc(C#N)n2n1` [23′, 6-(1-(2-fluoro-2-methylpropyl)-4-(4-fluorophenyl)-1H-imidazol-5-yl)imidazo[1,2-b]pyridazine-3-carbonitrile], the IC50 is 1.9 nM. Next, `CC[C@@H](CO)n1cnc(-c2ccc(F)cc2)c1-c1ccc2ncc(C#N)n2n1` [Example 6′, (S)-6-(4-(4-fluorophenyl)-1-(1-hydroxybutan-2-yl)-1H-imidazol-5-yl)imidazo[1,2-b]pyridazine-3-carbonitrile]: 5 nM.

As for `FCCn1cnc(-c2ccc(F)c(Cl)c2)c1-c1ccc2nccn2c1` [187′, 6-(4-(3-chloro-4-fluorophenyl)-1-(2-fluoroethyl)-1H-imidazol-5-yl)imidazo[1,2-a]pyridine], the half-maximal inhibitory concentration (IC50) is 3.3 nM. Under `CCC(CO)n1cnc(-c2ccc(F)cc2)c1-c1ccc2ncc(C(N)=O)n2c1` (stereo not shown) [179′, 6-(4-(4-fluorophenyl)-1-(1-hydroxybutan-2-yl)-1H-imidazol-5-yl)imidazo[1,2-a]pyridine-3-carboxamide] stands 2.2 nM; under `C[C@@H](O)Cn1cnc(-c2ccc(F)cc2)c1-c1ccc2ncc(C#N)n2c1` [68′, (R)-6-(4-(4-fluorophenyl)-1-(2-hydroxypropyl)-1H-imidazol-5-yl)imidazo[1,2-a]pyridine-3-carbonitrile], 301 nM.
